{"source": "patent US20210187046A1", "about": "“COCKTAIL COMPOSITIONS COMPRISING RESPIRATORY ANTIBACTERIAL PHAGES AND METHODS OF USE THEREOF” (priority 2019, published 2021)", "key": {"[1]": {"system": "P. aeruginosa PSA_1992/05", "assay": "Broth microdilution MIC with and without bacteriophage cocktail", "format": "cell-based, Pseudomonas aeruginosa", "method": "The method was developed and optimized as a proof of concept for P. aeruginosa using a single strain infected by all three phages (PSA_1992/05; NCIMB deposit 42914)). […] Different time points (4 h, 6 h, 12 h and 18 h) were used for optimization of the technique, but final readings were determined at 18 h. All experiments were conducted in duplicates. The study was optimized for the individual bacteriophages and a final assay is presented here containing data for the complete cocktail."}, "[2]": {"system": "K. pneumoniae bacterial isolates (n=36)", "assay": "Antibiotic susceptibility testing by disk diffusion", "format": "cell-based, Klebsiella pneumoniae", "settings": "EUCAST cut-off values", "method": "A selected group of K. pneumoniae bacterial isolates were collected between 2005 and 2019 (n=36), in at least 7 different health care facilities. Overall, these isolates were collected from hospital settings (n=25), outpatients (n=9), or from unknown origin (n=2), and from a diversity of biological products [urine (n=10), respiratory secretions (n=5), unknown (n=8), abdominal fluids (n=5) and others (n=8)]. This panel was evaluated with regards to antibiotic susceptibility testing by disk diffusion method against a selected panel of clinically important antibiotics (β-lactam antibiotics—ampicillin, ceftazidime, piperacillin with tazobactam, and meropenem; fluoroquinolones—ciprofloxacin; aminoglycosides—gentamicin; and sulphonamides—trimethoprim with sulfamethoxazole). Interpretation of results was performed according to the cut-off values recommended by the European Committee on Antimicrobial Susceptibility Testing (EUCAST, http://mic.eucast.org/Eucast2/). Isolates were considered multidrug resistant (MDR) when presenting non-susceptibility to three or more structurally unrelated classes of antibiotics (Magiorakos A P, Srinivasan A, Carey R B., Carmeli Y, Falagas M E, et al. 2011. Clin Microbiol Infect 2012; 18: 268-281)."}, "[3]": {"settings": "Pseudomonas aeruginosa, No Phage, reading at 18 h, read-out: MIC"}, "[4]": {"settings": "in the presence of bacteriophage cocktail TP-122A at MOI 0.1, 18 h"}, "[5]": {"settings": "in the presence of bacteriophage cocktail TP-122A at MOI 1, 18 h"}, "[6]": {"settings": "in the presence of bacteriophage cocktail TP-122A at MOI 10, 18 h"}}, "note": "Read-outs that look alike come from different tables or passages of the source."}
{"compound": "NCC[C@H](O)C(=O)N[C@@H]1C[C@H](N)[C@@H](O[C@H]2O[C@H](CN)[C@@H](O)[C@H](O)[C@H]2O)[C@H](O)[C@H]1O[C@H]1O[C@H](CO)[C@@H](O)[C@H](N)[C@H]1O", "note": "[AK, amikacin]", "values": [{"measurement": "MIC", "setting": "[1]; [3]", "result": 0.5, "unit": "mg/L"}, {"measurement": "MIC", "setting": "[1]; [4]", "result": "≤0.016", "unit": "mg/L"}, {"measurement": "MIC", "setting": "[1]; [5]", "result": "≤0.016", "unit": "mg/L"}, {"measurement": "MIC", "setting": "[1]; [6]", "result": "≤0.016", "unit": "mg/L"}]}
{"compound": "CC(C)(O/N=C(\\C(=O)N[C@@H]1C(=O)N2C(C(=O)[O-])=C(C[n+]3ccccc3)CS[C@H]12)c1csc(N)n1)C(=O)O", "note": "[C/ZD, ceftazidime]", "values": [{"measurement": "isolates non-susceptible", "setting": "[2]", "result": 86.1, "unit": "%"}, {"measurement": "MIC", "setting": "[1]; No Phage, reading at 18 h", "result": ".5 mg/L"}, {"measurement": "MIC", "setting": "[1]; [4]", "result": "≤0.016", "unit": "mg/L"}, {"measurement": "MIC", "setting": "[1]; [5]", "result": "≤0.016", "unit": "mg/L"}, {"measurement": "MIC", "setting": "[1]; [6]", "result": "≤0.016", "unit": "mg/L"}]}
{"compound": "CC(=O)NC[C@H]1CN(c2ccc(N3CCOCC3)c(F)c2)C(=O)O1", "note": "[LZD, linezolid]", "values": [{"measurement": "MIC", "setting": "[1]; [3]", "result": "> 32", "unit": "mg/L"}, {"measurement": "MIC", "setting": "[1]; [4]", "result": "≤0.016", "unit": "mg/L"}, {"measurement": "MIC", "setting": "[1]; [5]", "result": "≤0.016", "unit": "mg/L"}, {"measurement": "MIC", "setting": "[1]; [6]", "result": "≤0.016", "unit": "mg/L"}]}
{"compound": "C[C@@H](O)[C@H]1C(=O)N2C(C(=O)O)=C(S[C@@H]3CN[C@H](C(=O)N(C)C)C3)[C@H](C)[C@H]12", "note": "[MEM, meropenem]", "values": [{"measurement": "isolates non-susceptible", "setting": "[2]", "result": 77.8, "unit": "%"}, {"measurement": "MIC", "setting": "[1]; [3]", "result": 0.25, "unit": "mg/L"}, {"measurement": "MIC", "setting": "[1]; [4]", "result": "≤0.016", "unit": "mg/L"}, {"measurement": "MIC", "setting": "[1]; [5]", "result": "≤0.016", "unit": "mg/L"}, {"measurement": "MIC", "setting": "[1]; [6]", "result": "≤0.016", "unit": "mg/L"}]}
{"compound": "CN[C@H](CC(C)C)C(=O)N[C@H]1C(=O)N[C@@H](CC(N)=O)C(=O)N[C@H]2C(=O)N[C@H]3C(=O)N[C@H](C(=O)N[C@H](C(=O)O)c4cc(O)cc(O)c4-c4cc3ccc4O)[C@H](O)c3ccc(c(Cl)c3)Oc3cc2cc(c3O[C@@H]2O[C@H](CO)[C@@H](O)[C@H](O)[C@H]2O[C@H]2C[C@](C)(N)[C@H](O)[C@H](C)O2)Oc2ccc(cc2Cl)[C@H]1O", "note": "[VA, vancomycin]", "values": [{"measurement": "MIC", "setting": "[1]; Pseudomonas aeruginosa, 18 h", "result": "> 32", "unit": "mg/L"}, {"measurement": "MIC", "setting": "[1]; [4]", "result": "≤0.016", "unit": "mg/L"}, {"measurement": "MIC", "setting": "[1]; [5]", "result": "≤0.016", "unit": "mg/L"}, {"measurement": "MIC", "setting": "[1]; [6]", "result": "≤0.016", "unit": "mg/L"}]}
{"compound": "CC1(C)S[C@@H]2[C@H](NC(=O)[C@H](N)c3ccccc3)C(=O)N2[C@H]1C(=O)O", "note": "[ampicillin]", "values": [{"measurement": "isolates non-susceptible", "setting": "[2]", "result": 100, "unit": "%"}]}
{"compound": "O=C(O)c1cn(C2CC2)c2cc(N3CCNCC3)c(F)cc2c1=O", "note": "[ciprofloxacin]", "values": [{"measurement": "isolates non-susceptible", "setting": "[2]", "result": 91.7, "unit": "%"}]}
{"compound": "colistin [CS]", "values": [{"measurement": "MIC", "setting": "[1]; No Phage, reading at 18 h", "result": 0.25, "unit": "mg/L"}, {"measurement": "MIC", "setting": "[1]; [4]", "result": "≤0.016", "unit": "mg/L"}, {"measurement": "MIC", "setting": "[1]; [5]", "result": "≤0.016", "unit": "mg/L"}, {"measurement": "MIC", "setting": "[1]; [6]", "result": "≤0.016", "unit": "mg/L"}]}
{"compound": "gentamicin", "values": [{"measurement": "isolates non-susceptible", "setting": "[2]", "result": 72.2, "unit": "%"}]}
{"compound": "piperacillin with tazobactam [TZP]", "values": [{"measurement": "isolates non-susceptible", "setting": "[2]", "result": 97.2, "unit": "%"}, {"measurement": "MIC", "setting": "[1]; No Phage, reading at 18 h", "result": 1, "unit": "mg/L"}, {"measurement": "MIC", "setting": "[1]; [4]", "result": "≤0.016", "unit": "mg/L"}, {"measurement": "MIC", "setting": "[1]; [5]", "result": "≤0.016", "unit": "mg/L"}, {"measurement": "MIC", "setting": "[1]; [6]", "result": "≤0.016", "unit": "mg/L"}]}
{"compound": "trimethoprim with sulfamethoxazole", "values": [{"measurement": "isolates non-susceptible", "setting": "[2]", "result": 88.9, "unit": "%"}]}
